Test results published in patent US10239844B2, “Disubstituted triazole analogs” (BioVentures, LLC, priority 2014, dated 2019).

Assays:
Type in all cases: cell-based, human
K-562 = test: NCI 60 panel five-dose growth inhibition, Leukemia; conditions: K-562, Leukemia; for GI50: Homo sapiens, K562
RPMI-8226 = test: NCI 60 panel five-dose growth inhibition, Leukemia; conditions: RPMI-8226, Leukemia; for GI50: Homo sapiens
SR = test: NCI 60 panel five-dose growth inhibition, Leukemia; conditions: for GI50: Homo sapiens
A549/ATCC = test: NCI 60 panel five-dose growth inhibition, Non-Small Cell Lung Cancer; conditions: for GI50: Homo sapiens
HOP-62 = test: as above; conditions: HOP-62, Non-Small Cell Lung Cancer; for GI50: Homo sapiens
HOP-92 = test: as above; conditions: HOP-92, Non-Small Cell Lung Cancer; for GI50: Homo sapiens
NCI-H23 = test: as above; conditions: for GI50: Homo sapiens
NCI-H460 = test: as above; conditions: for GI50: Homo sapiens
COLO 205 = test: NCI 60 panel five-dose growth inhibition, Colon Cancer; conditions: COLO 205, Colon Cancer; for GI50: Homo sapiens
HCT-116 = test: as above; conditions: HCT-116, Colon Cancer; for GI50: Homo sapiens
1-ICT-15 = test: as above; conditions: 1-ICT-15, Colon Cancer; for GI50: Homo sapiens
SW-620 = test: as above; conditions: SW-620, Colon Cancer; for GI50: Homo sapiens
SF-268 = test: NCI 60 panel five-dose growth inhibition, CNS Cancer; conditions: SF-268, CNS Cancer; for GI50: Homo sapiens
SF-295 = test: as above; conditions: SF-295, CNS Cancer; for GI50: Homo sapiens
SF-539 = test: as above; conditions: for GI50: Homo sapiens
SNB-19 = test: as above; conditions: SNB-19, CNS Cancer; for GI50: Homo sapiens
SNB-75 = test: as above; conditions: SNB-75, CNS Cancer; for GI50: Homo sapiens
U251 = test: as above; conditions: for GI50: Homo sapiens, U-251
M14 = test: NCI 60 panel five-dose growth inhibition, Melanoma; conditions: for GI50: Homo sapiens
SK-MEL-2 = test: NCI 60 panel five-dose growth inhibition, Melanoma; conditions: SK-MEL-2, Melanoma; for GI50: Homo sapiens
5K-MEL-5 = test: NCI 60 panel five-dose growth inhibition, Melanoma; conditions: 5K-MEL-5, Melanoma; for GI50: Homo sapiens
UACC-62 = test: NCI 60 panel five-dose growth inhibition, Melanoma; conditions: for GI50: Homo sapiens, UACC-62, UACC-62, Melanoma; for TGI: UACC-62, Melanoma
IGROV1 = test: NCI 60 panel five-dose growth inhibition, Ovarian Cancer; conditions: for GI50: Homo sapiens, IGROV-1
OVCA R-3 = test: as above; conditions: for GI50: Homo sapiens, OVCAR-3
OVCAR-4 = test: as above; conditions: OVCAR-4, Ovarian Cancer
NCI/ADR-RES = test: as above; conditions: for GI50: Homo sapiens
SK-OV-3 = test: as above; conditions: SK-OV-3, Ovarian Cancer; for GI50: Homo sapiens
ACHN = test: NCI 60 panel five-dose growth inhibition, Renal Cancer; conditions: for GI50: Homo sapiens
U0-31 = test: as above; conditions: U0-31, Renal Cancer; for GI50: Homo sapiens
PC-3 = test: NCI 60 panel five-dose growth inhibition, Prostate Cancer; conditions: PC-3, Prostate Cancer; for GI50: Homo sapiens
DU-145 = test: as above; conditions: DU-145, Prostate Cancer; for GI50: Homo sapiens
MCF7 = test: NCI 60 panel five-dose growth inhibition, Breast Cancer; conditions: for GI50: Homo sapiens
MDA-MB-231/ATCC = test: as above; conditions: for GI50: Homo sapiens
HS 5781 = test: as above; conditions: HS 5781, Breast Cancer; for GI50: Homo sapiens
MDA-MB-468 = test: as above; conditions: MDA-MB-468, Breast Cancer; for GI50: Homo sapiens
SK-MEL-28 = test: NCI 60 panel five-dose growth inhibition, Melanoma; conditions: SK-MEL-28, Melanoma

`COc1cc(-c2n[nH]nc2-c2ccc3ccccc3n2)cc(OC)c1OC` [Example 4, 2-(5-(3,4,5-trimethoxyphenyl)-2H-1,2,3-triazol-4-yl)quinoline] showed a GI50 (K-562) of under 10 nM, a TGI (K-562) of over 100000 nM and a GI50 (RPMI-8226) of 36.8 nM. It also gave a TGI (RPMI-8226) of 21100 nM, a TGI (SR) of 16900 nM and a GI50 (SR) of under 10 nM. For the same molecule, the TGI (A549/ATCC) was over 100000 nM, the GI50 (A549/ATCC) was 37.4 nM and the TGI (HOP-62) was over 100000 nM. The GI50 (HOP-62) was 25 nM, the TGI (HOP-92) was 2670 nM and the GI50 (HOP-92) was under 10 nM. It also gave a TGI (NCI-H23) of 27900 nM, a GI50 (NCI-H23) of 37.7 nM and a TGI (NCI-H460) of over 100000 nM. It also gave a GI50 (NCI-H460) of 34.2 nM, a TGI (COLO 205) of 640 nM and a GI50 (COLO 205) of 149 nM. It also gave a TGI (HCT-116) of 1470 nM, a GI50 (HCT-116) of under 10 nM and a TGI (1-ICT-15) of 5130 nM. It also gave a GI50 (1-ICT-15) of under 10 nM, a GI50 (SW-620) of 29.5 nM and a TGI (SW-620) of over 100000 nM. The GI50 (SF-268) was 177 nM, the TGI (SF-268) was over 100000 nM and the GI50 (SF-295) was 10.8 nM. The TGI (SF-295) was 150 nM, the GI50 (SF-539; SF-539, CNS Cancer) was 13.8 nM and the TGI (SF-539; SF-539, CNS Cancer) was 40 nM. The GI50 (SNB-19) was 36.9 nM, the TGI (SNB-19) was over 100000 nM and the GI50 (SNB-75) was 14.2 nM. For the same molecule, the TGI (SNB-75) was over 100000 nM, the TGI (U251) was over 100000 nM and the GI50 (U251) was 37.9 nM. It also gave a TGI (M14) of over 100000 nM, a GI50 (M14) of under 10 nM and a GI50 (SK-MEL-2) of 55.5 nM. For the same molecule, the TGI (SK-MEL-2) was over 100000 nM, the TGI (5K-MEL-5) was 320 nM and the GI50 (5K-MEL-5) was 26.7 nM. The GI50 (UACC-62) was under 10 nM, the TGI (UACC-62) was over 100000 nM and the TGI (IGROV1) was over 100000 nM. It also gave a GI50 (IGROV1) of 50.9 nM, a GI50 (OVCA R-3; OVCA R-3, Ovarian Cancer) of 24.4 nM and a TGI (OVCA R-3; OVCA R-3, Ovarian Cancer) of over 100000 nM. For the same molecule, the TGI (OVCAR-4) was over 100000 nM, the TGI (NCI/ADR-RES) was 80 nM and the GI50 (NCI/ADR-RES) was under 10 nM. The GI50 (SK-OV-3) was 45.8 nM, the TGI (SK-OV-3) was over 100000 nM and the TGI (ACHN) was over 100000 nM. The GI50 (ACHN) was 145 nM, the GI50 (U0-31) was 20 nM and the TGI (U0-31) was over 100000 nM. The GI50 (PC-3) was 41.5 nM, the TGI (PC-3) was over 100000 nM and the TGI (DU-145) was over 100000 nM. The GI50 (DU-145) was 44.8 nM, the TGI (MCF7) was over 100000 nM and the GI50 (MCF7) was 24.5 nM. The TGI (MDA-MB-231/ATCC) was over 100000 nM, the GI50 (MDA-MB-231/ATCC) was 46 nM and the TGI (HS 5781) was over 100000 nM. It also gave a GI50 (HS 5781) of 40.9 nM, a GI50 (MDA-MB-468) of 23.3 nM and a TGI (MDA-MB-468) of 80 nM.
`COc1ccc(-c2n[nH]nc2-c2cc(OC)cc(OC)c2)cc1` [Example 5, 4-(3,5-dimethoxyphenyl)-5-(4-methoxyphenyl)-2H-1,2,3-triazole] was tested, and the GI50 (K-562) was under 10 nM, the TGI (K-562) was over 100000 nM and the GI50 (RPMI-8226) was under 10 nM. For the same molecule, the TGI (RPMI-8226) was 24600 nM, the TGI (SR) was over 100000 nM and the GI50 (SR) was under 10 nM. For the same molecule, the TGI (A549/ATCC) was 73400 nM, the GI50 (A549/ATCC) was under 10 nM and the TGI (HOP-62) was 72400 nM. For the same molecule, the GI50 (HOP-62) was under 10 nM, the TGI (HOP-92) was 80 nM and the GI50 (HOP-92) was under 10 nM. The TGI (NCI-H23) was 68700 nM, the GI50 (NCI-H23) was under 10 nM and the TGI (NCI-H460) was 10900 nM. It also gave a GI50 (NCI-H460) of under 10 nM, a TGI (COLO 205) of 120 nM and a GI50 (COLO 205) of 29.2 nM. The TGI (HCT-116) was over 100000 nM, the GI50 (HCT-116) was under 10 nM and the TGI (1-ICT-15) was over 100000 nM. It also gave a GI50 (1-ICT-15) of under 10 nM, a GI50 (SW-620) of under 10 nM and a TGI (SW-620) of over 100000 nM. The GI50 (SF-268) was under 10 nM, the TGI (SF-268) was 90000 nM and the GI50 (SF-295) was under 10 nM. For the same molecule, the TGI (SF-295) was 27500 nM, the GI50 (SF-539; SF-539, CNS Cancer) was under 10 nM and the TGI (SF-539; SF-539, CNS Cancer) was under 10 nM. The TGI (SF-539; SF-539, as stated in text) was “less than 10 nM”, the GI50 (SNB-19) was under 10 nM and the TGI (SNB-19) was over 100000 nM. The GI50 (SNB-75) was under 10 nM, the TGI (U251) was 16500 nM and the GI50 (U251) was under 10 nM. For the same molecule, the TGI (M14) was 23000 nM, the GI50 (M14) was under 10 nM and the GI50 (SK-MEL-2) was under 10 nM. For the same molecule, the TGI (SK-MEL-2) was 30500 nM, the TGI (SK-MEL-28) was 60700 nM and the TGI (5K-MEL-5) was 20 nM. For the same molecule, the GI50 (5K-MEL-5) was under 10 nM, the GI50 (UACC-62) was over 1000 nM and the TGI (UACC-62) was over 100000 nM. It also gave a TGI (IGROV1) of 21500 nM, a GI50 (IGROV1) of under 10 nM and a GI50 (OVCA R-3; OVCA R-3, Ovarian Cancer) of under 10 nM. For the same molecule, the TGI (OVCA R-3; OVCA R-3, Ovarian Cancer) was under 10 nM, the TGI (OVCA R-3; OVCAR-3, as stated in text) was “less than 10 nM” and the GI50 (OVCAR-4; Homo sapiens) was under 10 nM. For the same molecule, the TGI (OVCAR-4) was over 100000 nM, the TGI (NCI/ADR-RES) was 17500 nM and the GI50 (NCI/ADR-RES) was under 10 nM. For the same molecule, the GI50 (SK-OV-3) was under 10 nM, the TGI (SK-OV-3) was 40300 nM and the TGI (ACHN) was 62500 nM. The GI50 (ACHN) was under 10 nM, the GI50 (U0-31) was under 10 nM and the TGI (U0-31) was 25100 nM. The GI50 (PC-3) was under 10 nM, the TGI (PC-3) was 35200 nM and the GI50 (DU-145) was under 10 nM. The TGI (MCF7) was over 100000 nM, the GI50 (MCF7) was under 10 nM and the TGI (MDA-MB-231/ATCC) was over 100000 nM. For the same molecule, the GI50 (MDA-MB-231/ATCC) was under 10 nM, the TGI (HS 5781) was over 100000 nM and the GI50 (HS 5781) was under 10 nM. The GI50 (MDA-MB-468) was under 10 nM and the TGI (MDA-MB-468) was 22400 nM.
